pEC50: −log10 of the molar value.
How the values were obtained:
[1] = target: T1, Peroxisome proliferator-activated receptor gamma (Homo sapiens, UniProt P37231); experiment: (§1) Reporter Gene Assay: Transactivation Assay Expression vectors were prepared by inserting the ligand binding domain cDNA (complementary DNA) of human PPARalpha (amino acid 168-468) and human PPARgamma (amino acid 205-505), 3′ to and in frame with, the yeast GAL4 transcription factor DNA binding domain and the nuclear localization signal from the T-antigen of Polyoma Virus into the mammalian expression vector pSGS (Stratagene). The resulting expression vectors pSGGAL-PPARalpha and pSGGAL-PPARgamma were used in co-transfection experiments together with a modified pGL3 promoter plasmid (Promega) containing five copies of the UAS GAL4 recognition site. 2.5 μg pSGGAL-PPARalpha or pSGGAL-PPARgamma were mixed with 25 μg pGL3p […] and 22.5 μg pBluescript (Stratagene) in 0.95 mL ice cold PBS containing between 9-12 million U-2 OS (human osteosarcoma) cells. The cell/DNA mixture was incubated on ice for 5 minutes and then divided between two 0.4 cm cuvettes and electroporated at 960 μF, 2
T1 sequence (P37231 whole entry): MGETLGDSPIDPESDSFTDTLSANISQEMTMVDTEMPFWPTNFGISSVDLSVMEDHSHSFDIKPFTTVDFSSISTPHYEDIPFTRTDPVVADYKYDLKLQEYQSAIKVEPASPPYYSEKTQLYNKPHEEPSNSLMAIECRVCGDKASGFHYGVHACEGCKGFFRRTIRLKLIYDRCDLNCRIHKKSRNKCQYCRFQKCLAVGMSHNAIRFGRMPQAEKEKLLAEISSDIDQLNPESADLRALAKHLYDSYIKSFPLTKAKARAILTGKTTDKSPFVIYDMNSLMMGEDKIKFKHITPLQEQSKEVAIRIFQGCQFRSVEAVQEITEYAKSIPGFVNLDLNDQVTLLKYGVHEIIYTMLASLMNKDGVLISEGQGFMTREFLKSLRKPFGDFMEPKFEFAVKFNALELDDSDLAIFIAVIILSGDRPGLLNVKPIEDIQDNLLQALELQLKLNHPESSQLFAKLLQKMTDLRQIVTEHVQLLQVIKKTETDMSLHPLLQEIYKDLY

[2] = target: T2, Peroxisome proliferator-activated receptor alpha (Homo sapiens, UniProt Q07869); experiment: as §1
T2 sequence (Q07869 whole entry): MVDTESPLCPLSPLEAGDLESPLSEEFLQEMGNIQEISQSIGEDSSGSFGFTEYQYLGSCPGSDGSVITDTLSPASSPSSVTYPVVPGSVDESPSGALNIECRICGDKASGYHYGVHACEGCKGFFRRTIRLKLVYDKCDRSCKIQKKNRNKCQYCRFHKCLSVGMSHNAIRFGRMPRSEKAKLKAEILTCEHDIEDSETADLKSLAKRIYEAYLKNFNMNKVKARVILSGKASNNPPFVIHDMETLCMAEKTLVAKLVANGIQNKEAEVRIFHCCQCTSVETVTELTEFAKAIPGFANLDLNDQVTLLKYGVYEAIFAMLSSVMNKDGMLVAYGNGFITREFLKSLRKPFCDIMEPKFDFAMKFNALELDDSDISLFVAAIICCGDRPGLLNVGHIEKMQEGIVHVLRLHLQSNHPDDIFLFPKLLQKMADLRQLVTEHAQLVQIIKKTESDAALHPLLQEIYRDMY

Compound: CS(=O)(=O)Oc1ccc(C(=O)OCc2ccc(CC(SCCc3ccc(F)cc3)C(=O)O)cc2)cc1 (stereo unspecified)
- pEC50 [1]: 5.74
- pEC50 [2]: 6.62

Compound: O=C(Cc1ccccn1)OCc1ccc(CC(SCCc2ccc(F)cc2)C(=O)O)cc1 (stereo unspecified)
- pEC50 [1]: 5.68
- pEC50 [2]: 5.82

Compound: CS(=O)(=O)Oc1ccc(CC(=O)OCc2ccc(CC(SCCc3ccc(F)cc3)C(=O)O)cc2)cc1 (stereo unspecified)
- pEC50 [1]: 5.77
- pEC50 [2]: 6.62
